Measured values as given in patent US5368841A, “Photodynamic therapy for the destruction of the synovium in the treatment of rheumatoid arthritis and the inflammatory arthritides” (The General Hospital Corporation, priority 1993, dated 1994).

Assays:
[1] = rabbit, in vivo
[2] = tested on: 5PAM (murine squamous cell carcinoma); assay: Intracellular PpIX synthesis versus cell proliferation rate (Table 4); type: cell-based; settings: Dt 14 h
[3] = tested on: NBT-2 (rat bladder carcinoma); assay: as above; type: cell-based; settings: Dt 13.5 h
[4] = tested on: HSF (human skin fibroblast); assay: as above; type: cell-based; settings: Dt 27 h
[5] = tested on: EJ (human bladder carcinoma); assay: as above; type: cell-based; settings: Dt 23 h
[6] = set-up: species or system New Zealand White rabbits; settings: rabbit, in vivo
Method: (§1) Thirty New Zealand White rabbits weighing 2-4 kg were sensitized over a six week period with two cutaneous injections of ovalbumin suspended in Fruends adjuvant. At six weeks, the knee joints of all animals were challenged with an intra-articular injection of ovalbumin solution. Seven days following joint challenge, 25 animals received systemic intravenous injections with Photofrin® (2.0 mg/kg). Animals were killed at 6, 12, 24, 48 and 72 hours post Photofrin® injection and tissue samples were obtained of skin, quadriceps muscle, knee synovium, articular cartilage, meniscus, bone and tendon. Tissue weight was measured (Mettler AE 163 balance) and tissue samples were frozen at -90 degrees C. (Revco Ultra Low Freezer) until dye extraction.
For extraction, tissue samples were homogenized (Homogenizer, Model PT 10/35, Brinkman Instruments, Co., Westbury, N.Y.) in 8 cc 0.1N NaOh solution. Each sample was centrifuged at 17,000 RPM (Sorvall RC-5B, refrigerated superspeed centrifuge, DuPont instruments) for 20 minutes. The fluorescence of 2 cc of supernatant was measured with a spectrofluorometer (Model Flourolog 2, Spex Industries, Inc., Edison, N.J.) and compared to that of standard solutions of Photofrin® with known concentration, and Photofrin® mixed with supernatant of extracted control quadriceps muscle. The excitation wavelength 366 nm and fluorescence spectrum between 600 and 700 nm was analyzed. Untreated animals will served as controls and for background correction.

[7] = set-up: species or system New Zealand White rabbits; settings: rabbit, in vivo; remark: listed apart in the source
Method: as §1
The biodistribution of Photophrin® within synovium, articular cartilage and meniscus was also studied with fluorescence microscopy. At each of the harvest intervals of 6, 12, 24, 48 and 72 hours post injection, tissue specimens were obtained from experimental and control animals. Samples were placed in O.C.T. medium and frozen at -90 C. Unstained frozen sections at 10 microns were prepared using a cryostat (Microm, Inc., Heidelberg, Germany) and analyzed with a fluorescence microscope (Axiophot, Zeiss, Oberkochen, Germany) under epiluminescence of a mercury lamp (HBO 200 W/2, Zeiss). […]

[8] = rabbit, in vivo; remark: listed apart in the source
Method: Photochemotherapeutic synovectomy was performed on an antigen induced arthritis (AIA) model in 12 New Zealand white rabbits in a double control study. After a six week sensitization period, the joints of all animals were challenged bilaterally with an injection of albumin suspended in Freund's adjuvant. After five days, eight animals received systemic injections of 2 mg/kg of Photophrin® II. At 24 hours, four animals underwent bilateral arthrotomy procedures. The right knee joint of each was exposed to 100J/cm2 of 630 nm laser light over a 20 minute period. The left knees, not receiving the laser light application, served as controls. At 48 hours post HPD injection, an additional 4 animals underwent the identical operative procedures. Post-operatively, all animals were returned to their cages and allowed free movement. […] At one month post treatment, animals were sacrificed, knee joint synovium was then harvested, fixed, and stained with H and E for pathological evaluation.

With NCC(=O)CCC(=O)O [ALA, δ-aminolevulinic acid] the “ALA observed in the synovium” value [1] was “large amounts”.

In the case of C=CC1=C(C)c2cc3[nH]c(cc4nc(cc5[nH]c(cc1n2)c(C)c5CCC(=O)O)C(CCC(=O)O)=C4C)c(C)c3C=C [PpIX, Protoporphyrin IX], the “Intracellular PpIX (4 h)” value [2] is reported as 160 a moles/cell, the “Intracellular PpIX (4 h)” value [3] is reported as 160 a moles/cell and the “Intracellular PpIX (4 h)” value [4] is reported as 40 a moles/cell. The “Intracellular PpIX (4 h)” value [5] was 100 a moles/cell.

With Photofrin® the “selectivity of uptake in inflamed synovium” value [6] was “selectively taken up in synovium at 24 and 48 hours post systemic injection”, the “uptake in articular cartilage, meniscus, muscle and tendon” value [6] was “insignificant” and the “Photofrin® concentration in tissue (inflamed synovium)” value ([6]; iv, 2 mg/kg) was “greater than 4 micrograms/gram of tissue”. For the same molecule, the “time of maximum uptake in inflamed synovium” value ([6]; iv, 2 mg/kg) was 48 h, the “uptake by fluorescence microscopy in synovium” value [7] was “significant uptake at 12, 24, 48 and 72 hours” and the “side effects of synovium destruction” value [8] was “without significant side effects”.
